Results from patent publication US9469650B2, “Melampomagnolide B derivatives” (BOARD OF TRUSTEES OF THE UNIVERSITY OF ARKANSAS, priority 2013, dated 2016).

What was measured:
K-562 = assay: panel of 60 human tumor cell lines, growth inhibition (Leukemia); conditions: for GI50 / CC50: Homo sapiens; for GI50: K562; for CC50: K562, read-out: LC50
LOX IMVI = assay: panel of 60 human tumor cell lines, growth inhibition (Melanoma); conditions: Homo sapiens; for CC50: read-out: LC50; for IC (TGI): read-out: TGI
M14 = assay: as above; conditions: Homo sapiens; for GI50: M14; for CC50: M14, read-out: LC50; for IC (TGI): M14, read-out: TGI
SF-268 = assay: panel of 60 human tumor cell lines, growth inhibition (CNS Cancer); conditions: Homo sapiens; for GI50: SF-268; for CC50: SF-268, read-out: LC50; for IC (TGI): SF-268, read-out: TGI
SF-295 = assay: as above; conditions: Homo sapiens; for GI50: SF-295; for CC50: SF-295, read-out: LC50; for IC (TGI): SF-295, read-out: TGI
U251 = assay: as above; conditions: Homo sapiens; for GI50: U-251; for CC50: U-251, read-out: LC50; for IC (TGI): U-251, read-out: TGI
COLO 205 = assay: panel of 60 human tumor cell lines, growth inhibition (Colon Cancer); conditions: Homo sapiens; for GI50: COLO 205; for CC50: COLO 205, read-out: LC50; for IC (TGI): COLO 205, read-out: TGI
SW-620 = assay: as above; conditions: Homo sapiens; for CC50: SW-620, read-out: LC50; for IC (TGI): SW-620, read-out: TGI
786-0 = assay: panel of 60 human tumor cell lines, growth inhibition (Renal Cancer); conditions: Homo sapiens; for GI50: 786-0; for CC50: 786-0, read-out: LC50; for IC (TGI): 786-0, read-out: TGI
A498 = assay: as above; conditions: Homo sapiens; for GI50: A498; for CC50: A498, read-out: LC50; for IC (TGI): A498, read-out: TGI
CAKI-1 = assay: as above; conditions: Homo sapiens; for GI50: CAKI-1; for CC50: CAKI-1, read-out: LC50; for IC (TGI): CAKI-1, read-out: TGI
HS 578T = assay: panel of 60 human tumor cell lines, growth inhibition (Breast Cancer); conditions: Homo sapiens, Hs-578T; for CC50: read-out: LC50; for IC (TGI): read-out: TGI
OVCAR-5 = assay: panel of 60 human tumor cell lines, growth inhibition (Ovarian Cancer); conditions: for GI50 / CC50 / IC (TGI): Homo sapiens; for CC50: OVCAR-5, read-out: LC50; for IC (TGI): OVCAR-5, read-out: TGI
NCI/ADR-RES = assay: as above; conditions: Homo sapiens; for CC50: read-out: LC50; for IC (TGI): read-out: TGI
PC-3 = assay: panel of 60 human tumor cell lines, growth inhibition (Prostate Cancer); conditions: Homo sapiens; for GI50: PC-3; for CC50: PC-3, read-out: LC50; for IC (TGI): PC-3, read-out: TGI
DU-145 = assay: as above; conditions: Homo sapiens; for GI50: DU-145; for CC50: DU-145, read-out: LC50; for IC (TGI): DU-145, read-out: TGI
HOP-62 = assay: panel of 60 human tumor cell lines, growth inhibition (Non-Small Cell Lung Cancer); conditions: Homo sapiens; for GI50: HOP-62; for CC50: HOP-62, read-out: LC50; for IC (TGI): HOP-62, read-out: TGI
NCI-H226 = assay: as above; conditions: Homo sapiens; for GI50: NCI-H226; for CC50: NCI-H226, read-out: LC50; for IC (TGI): NCI-H226, read-out: TGI
NCI-H522 = assay: as above; conditions: Homo sapiens; for GI50: NCI-H522; for CC50: NCI-H522, read-out: LC50; for IC (TGI): NCI-H522, read-out: TGI
[1] = K-562, Log10 Concentration −4.0
[2] = K-562, Log10 Concentration −5.0
[3] = K-562, Log10 Concentration −6.0
[4] = K-562, Log10 Concentration −7.0
[5] = K-562, Log10 Concentration −8.0

## C=C1C(=O)O[C@H]2[C@H]1CC/C(COC(=O)NCCN1CCOCC1)=C\CC[C@@]1(C)O[C@@H]21 [JVM 57, ((1aR,7aS,10aS,10bS,E)-1a-methyl-8-methylene-9-oxo-1a,2,3,6,7,7a,8,9,10a,10b-decahydrooxireno[2′,3′:9,10]-cyclodeca[1,2-b]furan-5-yl)-methyl(2-morpholinoethyl)carbamate]
K-562
  GI50: 3.37 µM
  CC50: > 100 µM
K-562; K-562
  TGI: 2.88E−5
K-562; [1]
  Percent Growth: −16%
K-562; [2]
  Percent Growth: 14%
K-562; [3]
  Percent Growth: 90%
K-562; [4]
  Percent Growth: 99%
K-562; [5]
  Percent Growth: 100%
LOX IMVI
  GI50: 4.84 µM
  CC50: 47 µM
  IC (TGI): 17.5 µM
LOX IMVI; 5-dose assay
  GI50: 4.84 µM
M14
  GI50: 7.97 µM
  CC50: 58.5 µM
  IC (TGI): 23.1 µM
SF-268
  GI50: 14.5 µM
  CC50: 64.4 µM
  IC (TGI): 30.5 µM
SF-295
  GI50: > 100 µM
  CC50: > 100 µM
  IC (TGI): > 100 µM
U251
  GI50: 42.9 µM
  CC50: > 100 µM
  IC (TGI): > 100 µM
COLO 205
  GI50: 8.89 µM
  CC50: 71.6 µM
  IC (TGI): 25.9 µM
SW-620; SW-620, SW-620
  GI50: 3.48 µM
SW-620; SW-620, SW-620, 5-dose assay
  GI50: 3.48 µM
SW-620
  CC50: 64.8 µM
  IC (TGI): 13.9 µM
786-0
  GI50: 11.4 µM
  CC50: 59.4 µM
  IC (TGI): 26 µM
A498
  GI50: 19.4 µM
  CC50: > 100 µM
  IC (TGI): 57 µM
CAKI-1
  GI50: 4.31 µM
  CC50: 52.7 µM
  IC (TGI): 17.7 µM
HS 578T
  GI50: 20.1 µM
  CC50: > 100 µM
  IC (TGI): > 100 µM
OVCAR-5; OVCAR-5
  GI50: 15.7 µM
OVCAR-5
  CC50: 78.5 µM
  IC (TGI): 35.2 µM
NCI/ADR-RES
  GI50: 52.3 µM
  CC50: > 100 µM
  IC (TGI): > 100 µM
PC-3
  GI50: 16.6 µM
  CC50: 85.8 µM
  IC (TGI): 37.8 µM
DU-145
  GI50: 3.74 µM
  CC50: 37 µM
  IC (TGI): 13.3 µM
HOP-62
  GI50: 27.4 µM
  CC50: > 100 µM
  IC (TGI): 53 µM
NCI-H226
  GI50: 42.7 µM
  CC50: > 100 µM
  IC (TGI): > 100 µM
NCI-H522
  GI50: 2.13 µM
  CC50: 31.8 µM
  IC (TGI): 5.88 µM

## C=C1C(=O)O[C@H]2[C@H]1CC/C(COC(=O)NCCN1CCCC1)=C\CC[C@@]1(C)O[C@@H]21 [JVM 59, ((1aR,7aS,10aS,10bS,E)-1a-methyl-8-methylene-9-oxo-1a,2,3,6,7,7a,8,9,10a,10b-decahydrooxireno[2′,3′:9,10]cyclodeca[1,2-b]furan-5-yl)methyl-(2-(pyrrolidin-1-yl)ethyl)carbamate]
K-562
  GI50: 3.26 µM
  CC50: > 100 µM
K-562; K-562, five dose
  TGI: 1.86E−5
K-562; [1]
  Percent Growth: −36%
K-562; [2]
  Percent Growth: 13%
K-562; [3]
  Percent Growth: 89%
K-562; [4]
  Percent Growth: 79%
K-562; [5]
  Percent Growth: 87%
LOX IMVI; 5-dose assay
  GI50: 7.88 µM
LOX IMVI; five dose
  GI50: 7.88 µM
LOX IMVI
  CC50: 60.6 µM
  IC (TGI): 23.4 µM
M14
  GI50: 9.65 µM
  CC50: 58.1 µM
  IC (TGI): 24 µM
SF-268
  GI50: 14.7 µM
  CC50: 60.8 µM
  IC (TGI): 30 µM
SF-295
  GI50: 48.8 µM
  CC50: > 100 µM
  IC (TGI): > 100 µM
U251
  GI50: 26.7 µM
  CC50: > 100 µM
  IC (TGI): 93.1 µM
COLO 205
  GI50: 4.78 µM
  CC50: 45 µM
  IC (TGI): 16.8 µM
SW-620; SW-620, SW-620, five dose
  GI50: 3.46 µM
SW-620; SW-620, SW-620, 5-dose assay
  GI50: 3.46 µM
SW-620
  CC50: 47.2 µM
  IC (TGI): 13.8 µM
786-0
  GI50: 14.4 µM
  CC50: 60 µM
  IC (TGI): 29.4 µM
A498
  GI50: 20.4 µM
  CC50: 95.2 µM
  IC (TGI): 44.1 µM
CAKI-1
  GI50: 6.86 µM
  CC50: 51.8 µM
  IC (TGI): 21.2 µM
HS 578T
  GI50: 19.7 µM
  CC50: > 100 µM
  IC (TGI): 69 µM
OVCAR-5; OVCAR-5
  GI50: 13.5 µM
OVCAR-5
  CC50: 59.3 µM
  IC (TGI): 28.3 µM
OVCAR-5; OVCAR-5, Log10 Concentration −7.0
  Percent Growth: 9B
NCI/ADR-RES
  GI50: > 100 µM
  CC50: > 100 µM
  IC (TGI): > 100 µM
PC-3
  GI50: 15.7 µM
  CC50: 70.1 µM
  IC (TGI): 33.2 µM
DU-145
  GI50: 7.42 µM
  CC50: 46.3 µM
  IC (TGI): 20.2 µM
HOP-62
  GI50: 18 µM
  CC50: 62.3 µM
  IC (TGI): 33.5 µM
NCI-H226
  GI50: 35.3 µM
  CC50: > 100 µM
  IC (TGI): > 100 µM
NCI-H522
  GI50: 1.78 µM
  CC50: 32.2 µM
  IC (TGI): 5.05 µM

## C=C1C(=O)O[C@H]2[C@H]1CC/C(COC(=S)n1ccnc1)=C\CC[C@@]1(C)O[C@@H]21 [JVM 66]
K-562
  CC50: > 100 µM
K-562; [1]
  Percent Growth: 1%
K-562; [2]
  Percent Growth: 16%
K-562; [3]
  Percent Growth: 100%
K-562; [4]
  Percent Growth: 90%
K-562; [5]
  Percent Growth: 96%
K-562; K-562, NCI five dose
  TGI: >1.00E−4
LOX IMVI; NCI five dose
  GI50: 3.23 µM
LOX IMVI
  CC50: 43.1 µM
  IC (TGI): 11.8 µM
M14
  GI50: 12.6 µM
  CC50: 89.2 µM
  IC (TGI): 33.6 µM
SF-268
  GI50: 21.9 µM
  CC50: > 100 µM
  IC (TGI): 67.7 µM
SF-295
  GI50: 45 µM
  CC50: > 100 µM
  IC (TGI): 106 µM
U251
  GI50: 32.5 µM
  CC50: > 100 µM
  IC (TGI): > 100 µM
COLO 205
  GI50: 12.3 µM
  CC50: 61.9 µM
  IC (TGI): 27.6 µM
SW-620; SW-620, SW-620, NCI five dose
  GI50: 4.86 µM
SW-620
  CC50: 78.3 µM
  IC (TGI): 21.7 µM
786-0
  GI50: 16.8 µM
  CC50: 85.7 µM
  IC (TGI): 37.9 µM
A498
  GI50: 14.5 µM
  CC50: > 100 µM
  IC (TGI): 65.5 µM
CAKI-1
  GI50: 12.6 µM
  CC50: 73.8 µM
  IC (TGI): 30.5 µM
HS 578T
  GI50: 26.5 µM
  CC50: > 100 µM
  IC (TGI): > 100 µM
OVCAR-5; OVCAR-5
  GI50: 13.5 µM
OVCAR-5
  CC50: 78.1 µM
  IC (TGI): 1760 µM
NCI/ADR-RES
  GI50: 30.1 µM
  CC50: > 100 µM
  IC (TGI): > 100 µM
PC-3
  GI50: 12 µM
  CC50: > 100 µM
  IC (TGI): 66.6 µM
DU-145
  GI50: 12.2 µM
  CC50: 59.1 µM
  IC (TGI): 26.9 µM
HOP-62
  GI50: 36.5 µM
  CC50: > 100 µM
NCI-H226
  GI50: 99.6 µM
  CC50: > 100 µM
  IC (TGI): > 100 µM
NCI-H522
  GI50: 5.19 µM
  CC50: 66.9 µM
  IC (TGI): 21.3 µM
